Earlier results in patent publication US5246969A, “Di-propargyl-containing aryl/alkylsulfonyl-terminated alanine amino-diol compounds for treatment of hypertension” (G. D. Searle & Co., priority 1992, dated 1993).
Square brackets hold non-standard residues; d marks the D form. Peptide text beside a SMILES is read from it. * marks the point of attachment. Sta = CC(C)C[C@H](N)[C@@H](O)CC(=O)O; Isovaleryl = CC(C)CC(=O)*

Test system: hog renin
Conditions: nephrectomized rats after the injection of hog renin

## CC(C)CC(=O)N[C@H](C(=O)N[C@H](C(=O)N[C@@H](CC(C)C)[C@@H](O)CC(=O)N[C@@H](C)C(=O)N[C@@H](CC(C)C)[C@@H](O)CC(=O)O)C(C)C)C(C)C [pepstatin] (Isovaleryl-VV[Sta]A[Sta]-OH)
  blood pressure in vivo: reduce blood pressure
